{"source": "patent US20030099725A1", "about": "“Herbal compositions useful as chemopreventive and therapeutic agents and methods of manufacturing same” (priority 2001, published 2003)", "origin": "cited, not measured here", "test_system": "women at high risk of breast cancer"}
{"smiles": "CC/C(=C(\\c1ccccc1)c1ccc(OCCN(C)C)cc1)c1ccccc1", "note": "[Tamoxifen]", "values": [{"measurement": "decrease in invasive cancer versus placebo", "value": 49, "unit": "%"}, {"measurement": "decrease in non-invasive breast cancer versus placebo", "value": 50, "unit": "%"}]}
